# According to patent US10544095B2 (Pfizer Inc., priority 2015, dated 2020):
# Molecular target: hTDO2 in human glioblastoma A172 cells (Homo sapiens (Human), UniProt P48775)
# Assay: Cellular assay for TDO2 activity determination in A172 cells
# Assay type: cell-based
# Details: overnight incubation, kynurenine absorbance at 480 nm
# In short: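 Glioblastoma A172 cells with endogenous hTDO2, 1.25×10^4 cells/well, incubated overnight at 37° C. with ten serial compound concentrations in IMDM with 2% FBS. Supernatant kynurenine, after TCA precipitation and 4-(dimethylamino)-benzaldehyde reaction, read at 480 nm against kynurenine standard curve; data curve-fitted.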
# Sequence of hTDO2 in human glioblastoma A172 cells (P48775 whole entry): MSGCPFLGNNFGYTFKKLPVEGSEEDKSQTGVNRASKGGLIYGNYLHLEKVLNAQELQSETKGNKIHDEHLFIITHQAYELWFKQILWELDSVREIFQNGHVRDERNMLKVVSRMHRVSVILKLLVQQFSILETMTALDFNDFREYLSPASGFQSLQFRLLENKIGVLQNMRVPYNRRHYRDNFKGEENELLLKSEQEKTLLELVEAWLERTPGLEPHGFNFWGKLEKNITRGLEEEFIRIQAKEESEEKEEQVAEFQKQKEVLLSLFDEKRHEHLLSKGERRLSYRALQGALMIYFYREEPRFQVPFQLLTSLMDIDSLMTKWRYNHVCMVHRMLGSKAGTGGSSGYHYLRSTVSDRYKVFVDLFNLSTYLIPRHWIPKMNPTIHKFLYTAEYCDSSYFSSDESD
row,SMILES,IC50
1,"O=C(CCNS(=O)(=O)c1ccc(-c2c[nH]c3cc(F)ccc23)cc1)N1CCOCC1 [Example 106, 4-(6-fluoro-1H-indol-3-yl)-N-(3-morpholino-3-oxopropyl)-benzenesulfonamide]",270 nM
2,"N[C@H]1CN(C(=O)CCNS(=O)(=O)c2ccc(-c3c[nH]c4cc(F)ccc34)cc2)C[C@H]1F (single isomer, unassigned) [Example 173]",919 nM
3,"O=C(CCNS(=O)(=O)c1ccc(-c2c[nH]c3cc(F)ccc23)cc1)N1C[C@H](O)[C@@H](O)C1 [Example 171, (−)-N-(3-((3S,4S)-3,4-dihydroxypyrrolidin-1-yl)-3-oxopropyl)-4-(6-fluoro-1H-indol-3-yl)benzenesulfonamide]",1740 nM
4,"O=S(=O)(c1ccc(-c2c[nH]c3cc(F)ccc23)cc1)N1CCC(O)(c2ccncn2)C1 (stereo not shown) [Example 119, 1-((4-(6-fluoro-1H-indol-3-yl)phenyl)sulfonyl)-3-(pyrimidin-4-yl)pyrrolidin-3-ol]",123 nM
5,"CN1C(=O)CN(S(=O)(=O)c2ccc(-c3c[nH]c4cc(F)ccc34)cc2)CC1=O [Example 145, 4-((4-(6-fluoro-1H-indol-3-yl)phenyl)sulfonyl)-1-methylpiperazine-2,6-dione]",3610 nM
6,"Cn1nccc1C1(O)CCN(S(=O)(=O)c2ccc(-c3c[nH]c4cc(F)ccc34)cc2)C1 (stereo not shown) [Example 113, 1-((4-(6-fluoro-1H-indol-3-yl)phenyl)sulfonyl)-3-(1-methyl-1H-pyrazol-5-yl)pyrrolidin-3-ol]",90500 nM
7,"O=C(CCNS(=O)(=O)c1ccc(-c2c[nH]c3cc(F)ccc23)cc1)N[C@@H]1CCOC1 [Example 107, (+)-(R)-3-(4-(6-fluoro-1H-indol-3-yl)phenylsulfonamido)-N-(tetrahydrofuran-3-yl)propanamide]",160 nM
8,"Cc1cc(S(=O)(=O)N2CCNCC2)ccc1-c1c[nH]c2cc(F)ccc12 [Example 25, 6-fluoro-3-(2-methyl-4-(piperazin-1-ylsulfonyl)-phenyl)-1H-indole]",1400 nM
9,"O=C(CCNS(=O)(=O)c1ccc(-c2c[nH]c3cc(F)ccc23)cc1)N1C[C@@H](O)[C@H](O)C1 [Example 170, (+)-N-(3-((3R,4R)-3,4-dihydroxypyrrolidin-1-yl)-3-oxopropyl)-4-(6-fluoro-1H-indol-3-yl) benzenesulfonamide]",1210 nM
10,"C[C@@H]1CN(S(=O)(=O)c2ccc(-c3c[nH]c4cc(F)ccc34)cc2)C[C@H](C)N1 [Example 11, 3-(4-(((cis)-3,5-dimethylpiperazin-1-yl)sulfonyl)phenyl)-6-fluoro-1H-indole]",320 nM
11,"O=C1CN(S(=O)(=O)c2ccc(-c3c[nH]c4cc(F)ccc34)cc2)CCN1C[C@H](O)CO [Example 147, (S)-1-(2,3-dihydroxypropyl)-4-((4-(6-fluoro-1H-indol-3-yl)phenyl)sulfonyl)piperazin-2-one]",441 nM
12,"O=S(=O)(c1ccc(-c2c[nH]c3cc(F)ccc23)c(F)c1)N1CCNCC1 [Example 22, 6-fluoro-3-(2-fluoro-4-(piperazin-1-ylsulfonyl)-phenyl)-1H-indole]",600 nM
13,"CN1CCN(C(=O)NCCNS(=O)(=O)c2ccc(-c3c[nH]c4cc(F)ccc34)cc2)CC1 [Example 110, N-(2-(4-(6-fluoro-1H-indol-3-yl)phenylsulfonamido)ethyl)-4-methylpiperazine-1-carboxamide]",180 nM
14,"CS(=O)(=O)N1CCN(S(=O)(=O)c2ccc(-c3c[nH]c4cc(F)ccc34)cc2)CC1 [Example 19, 6-fluoro-3-(4-((4-(methylsulfonyl)piperazin-1-yl)sulfonyl)phenyl)-1H-indole]",1000 nM
15,"N[C@H]1CN(C(=O)CCNS(=O)(=O)c2ccc(-c3c[nH]c4cc(F)ccc34)cc2)C[C@H]1F (single isomer, unassigned) [Example 172, (−)-N-(3-((3S.4R)-3-amino-4-fluoropyrrolidin-1-yl)-3-oxopropyl)-4-(6-fluoro-1H-indol-3-yl)benzenesulfonamide]",957 nM
16,"O=C1CN(S(=O)(=O)c2ccc(-c3c[nH]c4cc(F)ccc34)cc2)CCN1C[C@@H](O)CO [Example 146, (R)-1-(2,3-dihydroxypropyl)-4-((4-(6-fluoro-1H-indol-3-yl)phenyl)sulfonyl)piperazin-2-one]",380 nM

# Now from value to compound:
row,IC50,SMILES
1,449 nM,"NC(=O)CCNS(=O)(=O)c1ccc(-c2c[nH]c3cc(F)ccc23)cc1CC(F)F [Example 175, 3-((2-(2,2-difluoroethyl)-4-(6-fluoro-1H-indol-3-yl)-phenyl)sulfonamido)propanamide]"
2,3900 nM,"Cc1cc(-c2c[nH]c3cc(F)ccc23)cc(S(=O)(=O)NCCN)c1 [Example 30, N-(2-aminoethyl)-3-(6-fluoro-1H-indol-3-yl)-5-methyl-benzenesulfonamide]"
3,92000 nM,"C[C@]1(O)CCN(S(=O)(=O)c2ccc(-c3c[nH]c4cc(F)ccc34)cc2)C1 [Example 116, (S)-1-((4-(6-fluoro-1H-indol-3-yl)phenyl)sulfonyl)-3-methylpyrrolidin-3-ol]"
4,360 nM,"Cc1noc(CCNS(=O)(=O)c2ccc(-c3c[nH]c4cc(F)ccc34)cc2)n1 [Example 59, 4-(6-fluoro-1H-indol-3-yl)-N-(2-(3-methyl-1,2,4-oxadiazol-5-yl)-ethyl)benzenesulfonamide]"
5,160 nM,"O=S(=O)(c1ccc(-c2c[nH]c3cc(F)ccc23)cc1)N1CC(O)C1 [Example 65, 1-((4-(6-fluoro-1H-indol-3-yl)phenyl)sulfonyl)azetidin-3-ol]"
6,93 nM,"C[C@@H](CO)NS(=O)(=O)c1ccc(-c2c[nH]c3cc(F)ccc23)cc1 [Example 101, (−)-(6-fluoro-1H-indol-3-yl)-N-[(2S)-1-hydroxypropan-2-yl]benzenesulfonamide]"
7,160 nM,"CN(CCC(N)=O)S(=O)(=O)c1ccc(-c2c[nH]c3cc(F)ccc23)cc1 [Example 27, 3-(4-(6-fluoro-1H-indol-3-yl)-N-methylphenylsulfonamido)-propanamide]"
8,230 nM,"O=S(=O)(c1ccc(-c2c[nH]c3cc(F)ccc23)cc1Cl)N1CCNCC1 [Example 45, 3-(3-chloro-4-(piperazin-1-ylsulfonyl)phenyl)-6-fluoro-1H-indole]"
9,220 nM,"C[S+]([O-])CCNS(=O)(=O)c1ccc(-c2c[nH]c3cc(F)ccc23)cc1 (single isomer, unassigned; (-)) [Example 159, (−)-4-(6-fluoro-1H-indol-3-yl)-N-(2-(methylsulfinyl)-ethyl)benzenesulfonamide]"
10,2900 nM,"NCCNS(=O)(=O)c1cc(-c2c[nH]c3cc(F)ccc23)ccc1O [Example 39, N-(2-aminoethyl)-5-(6-fluoro-1H-indol-3-yl)-2-hydroxy-benzenesulfonamide]"
11,200 nM,"Cc1nnc(CNS(=O)(=O)c2ccc(-c3c[nH]c4cc(F)ccc34)cc2)o1 [Example 89, 4-(6-fluoro-1H-indol-3-yl)-N-((5-methyl-1,3,4-oxadiazol-2-yl)methyl) benzenesulfonamide]"
12,740 nM,"CS(=O)(=O)c1cccc(-c2c[nH]c3cc(F)ccc23)c1 [Example 31, 6-fluoro-3-(3-(methylsulfonyl)phenyl)-1H-indole]"
13,133 nM,"O=S(=O)(c1ccc(-c2c[nH]c3cc(F)ccc23)cc1)N1CCOC[C@H]1CO [Example 115, (R)-(4-((4-(6-fluoro-1H-indol-3-yl)phenyl)sulfonyl)morpholin-3-yl)methanol]"
14,341 nM,"COCc1cc(-c2c[nH]c3cc(F)ccc23)ccc1S(=O)(=O)NCCC(N)=O [Example 165, 3-((4-(6-fluoro-1H-indol-3-yl)-2-(methoxymethyl)phenyl)-sulfonamido) propanamide]"
15,260 nM,"CN1CCN(S(=O)(=O)c2ccc(-c3c[nH]c4cc(F)ccc34)cc2)CC1=O [Example 42, 4-((4-(6-fluoro-1H-indol-3-yl)phenyl)sulfonyl)-1-methylpiperazin-2-one]"
16,630 nM,"O=S(=O)(c1cc(-c2c[nH]c3cc(F)ccc23)ccc1Cl)N1CCNCC1 [Example 23, 3-(4-chloro-3-(piperazin-1-ylsulfonyl)phenyl)-6-fluoro-1H-indole]"
17,186 nM,"Cc1noc(CNS(=O)(=O)c2ccc(-c3c[nH]c4cc(F)ccc34)cc2)n1 [Example 155, 4-(6-fluoro-1H-indol-3-yl)-N-((3-methyl-1,2,4-oxadiazol-5-yl)methyl) benzenesulfonamide]"
18,150 nM,"O=S(=O)(NCCc1ncc[nH]1)c1ccc(-c2c[nH]c3cc(F)ccc23)cc1 [Example 73, N-(2-(1H-imidazol-2-yl)ethyl)-4-(6-fluoro-1H-indol-3-yl)benzenesulfonamide]"
19,4300 nM,"COc1cc(-c2c[nH]c3cc(F)ccc23)cc(S(=O)(=O)NCCN)c1 [Example 61, N-(2-aminoethyl)-3-(6-fluoro-1H-indol-3-yl)-5-methoxybenzene-sulfonamide]"
20,140 nM,"O=S(=O)(NC1CNC1)c1ccc(-c2c[nH]c3cc(F)ccc23)cc1 [Example 68, N-(azetidin-3-yl)-4-(6-fluoro-1H-indol-3-yl)benzenesulfonamide]"
21,230 nM,"N[C@H]1CN(S(=O)(=O)c2ccc(-c3c[nH]c4cc(F)ccc34)cc2)C[C@H]1F (stereo in doubt) [Example 81, (+)-(cis)-4-fluoro-1-{[4-(6-fluoro-1H-indol-3-yl)phenyl]-sulfonyl}pyrrolidin-3-amine]"
22,2500 nM,"NCCNS(=O)(=O)c1cc(Cl)cc(-c2c[nH]c3cc(F)ccc23)c1 [Example 38, N-(2-aminoethyl)-3-chloro-5-(6-fluoro-1H-indol-3-yl)-benzenesulfonamide]"
23,125 nM,"O=S(=O)(c1ccc(-c2c[nH]c3cc(F)ccc23)cc1)N1C[C@H](O)[C@@H](O)[C@@H]1CO [Example 134, (2S,3S,4S)-1-((4-(6-fluoro-1H-indol-3-yl)phenyl)sulfonyl)-2-(hydroxymethyl) pyrrolidine-3,4-diol]"
24,700 nM,"NCc1cc(-c2c[nH]c3cc(F)ccc23)ccc1S(N)(=O)=O [Example 177, 2-(aminomethyl)-4-(6-fluoro-1H-indol-3-yl)benzenesulfonamide]"
